Results as given in patent publication US20070099822A1, “Regulation of tissue mineralization and phosphate metabolism by asarm peptides” (priority 2003, published 2007).

Target: anti-ASARM-peptide polyclonal
Assay: Competitive ELISA, biotinylated against non-biotinylated ASARM-peptide
Assay type: binding, Rabbit
Conditions: 0.5 ng/mL biotinylated ASARM-peptide
Text: MEPE ASARM-peptide (phosphorylated and non-phosphorylated) & polyclonal antibodies. The carboxy terminal region of MEPE containing residues 507-525 were synthesized using routine techniques by multiple peptide cloning systems (Multiple Peptide Systems, San Diego, Calif.). For ELISA studies, both phosphorylated and non-phosphorylated peptides were synthesized. The phosphorylated-form of the peptide (NH2—RDDSSESSDSG(Sp)S(Sp)E(Sp)DGD-COOH; SEQ ID NO. 14) was biotinylated using a Pierce EZ-Link Sulfo-NHS-LC-Biotinylation Kit (Pierce & Co, Rockford, Ill.) and the peptide de-salted using an Amersham Biosciences PD-10 Desalting column (Amersham Biosciences, Piscataway, N.J.). […] Rabbit polyclonal antibodies raised against ASARM-peptide NH2-[…]-COOH (SEQ ID NO. 5) were used in these studies and have been previously described (Rowe, et al., Bone 34:303-319, 2004). Pre-immune sera from the same rabbits were used as negative controls.
ELISA Assay. A new enzyme-linked-immunosorbent-assay (ELISA) was designed to specifically quantitate ASARM-peptide(s) in sera from humans and mice. […]

KD of quenching in competitive ELISA: 7.5 ng/mL
Substance: H-CFSSRRRDDSSESSDSGSSSESDGD-OH [ASARM-peptide]
Qmax (quench maximum): 98.7%
